# Article PMC11547840, “The Intestinal Barrier Protective Effect of Indole Aldehyde Derivatives on Acute Toxoplasma gondii Infection” (Molecules, 2024)
# Entries after “also recorded” stand apart in the source; their conditions may differ. Where two headings read alike, the source gives them in different places.
# Legend:
# [1] = tested on: T. gondii; assay: In vivo anti-T. gondii activity, peritoneal tachyzoite count by Trypan Blue; set-up: species or system Toxoplasma gondii; settings: 100 mg/kg oral once a day for 6 days; for Number of Tachyzoites: peritoneal cavity of KM female mice, i.p. 2 × 10^3 tachyzoites, Toxo 12.28 ± 0.39; for Inhibition Rate: mice peritoneal T. gondii, (untreated group − treated group)/untreated group × 100%
# Description: (§1) For the in vivo study, KM female mice were divided into groups consisting of six animals each and then intraperitoneally injected with 2 × 10^3 tachyzoites. […] On the last day, heart blood samples were collected after anesthesia to separate the serum, and after mice were sacrificed by cervical dislocation, mice were dissected to obtain organs and tissues. The tachyzoites were harvested from mice peritoneal cavities to determine the level of tachyzoite proliferation. The peritoneal fluid was collected twice; the first time, it was centrifuged at 500 rpm for 10 min, then the supernatant was centrifuged at 2500 rpm for 20 min, discarded, and the worm precipitate was collected at the bottom, and mixed with an appropriate amount of physiological saline. A total of 10 μL of T. gondii suspension was mixed with 10 μL of 4% Trypan blue staining solution in a 1.5 mL centrifuge tube.
# [2] = tested on: small intestine of mice with T. gondii infection; assay: Small intestine and serum biochemical parameters (GSH, MDA, NO, DAO) of T. gondii-infected mice; type: in vivo; settings: 100 mg/kg oral once a day for 6 days
# Description: as §1
# The GSH was measured according to the method in [58]. The intestine homogenate was mixed with half volume trichloroacetic acid (20%, w/v) and centrifuged at 4000 rpm for 10 min. Then, phosphate buffer (phosphate 0.3 mol/L, pH 7.5) and 5,5-dithio-bis-(2-nitrobenzoic acid) (0.04%, w/v) were added to the separated supernatant and mixed thoroughly. After 5 min at room temperature, the absorbance was measured at 412 nm.
# MDA was measured by the standard method with minor modifications. The small intestine homogenate supernatant was mixed with thiobarbituric acid (0.5%, w/v) and heated in boiling water bath for 1 h, then cooled quickly and centrifuged at 6000 rpm for 10 min; the absorbance of pink colored supernatant was measured at 532 nm. Tetraethoxypropane replaced the intestine homogenate in the standard sample.
# (§2) The Greiss method was used to determine the NO content in small intestine tissues and cells. The above small intestine tissue homogenate or IEC-6 cell supernatant was centrifuged at 4 °C and 1500 rpm for 15 min, and the absorbance was measured at 540 nm by adding equal amounts of Griess A and B reagents to the supernatant. The standard used in the NO standard curve was sodium nitrite, and the NO content in the samples was calculated by substituting the absorbance values of the samples into the regression equation of the standard curve.
# The DAO evaluation experimental method of Xin Y et al. was adopted, in which mouse heart blood was taken from a 1.5 mL centrifuge tube and centrifuged at 4 °C and 3000× g for 10 min, and the upper layer of serum was taken for measurement. Another 1.5 mL tube was taken and 600 μL of phosphate buffer, 20 μL of horseradish peroxidase, 20 μL of dianisidine dihydrochloride hydrochloride, and 20 μL of 1,5-pentanediamine hydrochloride were added. After that, 100 μL of serum samples to be tested was added, mixed well and heated at 37 °C for 18 h. The absorbance was measured at 436 nm. […]. A total of 100 μL of distilled water was used in the blank tube instead of serum, and the standard used in the standard curve was diamine oxidase. The absorbance value of the experimental samples was substituted into the regression equation of the standard curve to calculate the content of DAO in the serum samples.
# [3] = tested on: T. gondii; assay: MTT anti-T. gondii activity in T. gondii-infected IEC-6 cells; type: cell-based, Toxoplasma gondii; settings: for Selective Index (SI): IC50 in IEC-6 cells/IC50 in T. gondii-infected IEC-6 cells; for IC50: Toxoplasma gondii, read-out: IC50 in T. gondii
# Protocol: (§3) Anti-T. gondii activity and cytotoxicity of indole derivatives in vitro were evaluated by MTT assay (Solarbio, Beijing, China) using a slightly modified version of the procedure of Shang et al.. IEC-6 cells were seeded onto the 96-well plates (2 × 10^3/well) for 24 h to obtain the full monolayer, and then the host cells were infected with T. gondii (parasite: cell = 3:1) in complete medium. After 24 h, cells were washed to remove any extra parasites and then incubated with different concentrations (20, 200, 500 and 1000 μm) of […]. […] After 24 h of treatment, MTT solution was added directly to the culture wells and then incubated for 4 h at 37 °C. The optical absorbance was measured at a wavelength of 548 nm using a microplate reader (SpectraMax M2, Molecular Devices, Sunnyvale, CA, USA). Giemsa staining was used to observe the changes in cell morphology and the proliferation of T. gondii-infected cells. IEC-6 (1 × 10^5 cells/well) was inoculated into 24-well plates containing round coverslip, and after the cells were attached to the wall, T. gondii (3 × 10^5 cells/well) was added to infect the cells for 3 h. After the culture medium was discarded, PBS was added to remove the uninvaded tachyzoites. […] After discarding the supernatant, the cells were washed with PBS and completely aspirated, and then fixed by adding 0.5 mL of methanol for 3 min. Giemsa staining solution was added and shaken slightly to make the staining uniform. Coverslips were rinsed with distilled water to replace the staining solution, and finally, the slices were sealed with neutral gum and air-dried.
# [4] = tested on: IEC-6 cells with T. gondii infection; assay: NO level of T. gondii-infected IEC-6 cells (Griess); type: cell-based; settings: Griess method, cell supernatant; compared with Toxo group
# Protocol: as §2
# [5] = Small intestine histology and pathology scoring of T. gondii-infected mice; type: in vivo; settings: 100 mg/kg oral once a day for 6 days
# Description: as §1
# The histology research includes apparent pathological change score, H&E staining and histopathological scores of tissue, as shown in Table 4 and Table 5. In detail, the obtained small intestine tissues were fixed in formalin solution and embedded in paraffin wax after gradual dehydration with different concentrations of ethanol. The paraffin fast was sectioned to a thickness of 5 μm, rehydrated and stained with hematoxylin and eosin, respectively, and finally permeabilized with xylene and sealed with neutral gum. A light microscope was used to observe and collect pictures, and the degree of damage to the small intestinal tissues was assessed according to Chiu’s six-grade scale.
# [6] = tested on: IEC-6 cells; assay: MTT cytotoxicity assay in IEC-6 cells; type: cell-based; settings: Rattus norvegicus, read-out: IC50 in IEC-6 Cells
# Protocol: as §3
# [7] = tested on: T. gondii; assay: Giemsa staining: cell infection rate and intracellular tachyzoites in IEC-6 cells; type: cell-based, Toxoplasma gondii; settings: IEC-6 cells infected 3 h, drug 12 h at the IC50 value of the cells; for cell infection rate: Toxo group 49.2%; for number of intracellular tachyzoites: Toxo group 254
# Protocol: as §3
# [8] = Small intestine function of T. gondii-infected mice (weight, food utilization, carmine excretion); type: in vivo; settings: 100 mg/kg oral once a day for 6 days
# Protocol: On the last day, heart blood samples were collected after anesthesia to separate the serum, and after mice were sacrificed by cervical dislocation, mice were dissected to obtain organs and tissues. The tachyzoites were harvested from mice peritoneal cavities to determine the level of tachyzoite proliferation. The peritoneal fluid was collected twice; the first time, it was centrifuged at 500 rpm for 10 min, then the supernatant was centrifuged at 2500 rpm for 20 min, discarded, and the worm precipitate was collected at the bottom, and mixed with an appropriate amount of physiological saline. […] Mouse food intake and body weight were recorded daily for six days during the experiment and were used to record growth performance data. At the end of the experiment, body weight gain, food intake and food utilization of mice were calculated as Equation (1). […] A solution containing 3% carmine dye and 0.5% carboxymethyl cellulose was prepared. On the fifth day of T. gondii infection, each mouse was transferred to a separate cage, with the bottom of the cage completely covered with white paper to facilitate the detection of cochineal in the feces after red feces were eliminated. […] During the experimental period, the mice were free to move around, and eat and drink freely without any external interference, as described.
# [9] = MTT, concentration required to reduce T. gondii-infected IEC-6 cell growth by 50%, 24 h treatment
# [10] = MTT, concentration required to reduce IEC-6 cell growth by 50%, 24 h treatment
SMILES,Number of Tachyzoites [1],DAO level in serum [2],MDA level in small intestine tissue [2],NO level in small intestine tissue [2],Selective Index (SI) [3],"IC50 [3, 9]",NO level of IEC-6 cells with T. gondii infection [4],"intestinal barrier damage induced by T. gondii infection (histology, H&E) [5]","IC50 [6, 10]",cell infection rate [7],"IC50 ([3]; IEC-6, 24 h)","IC50 ([6]; IEC-6, 24 h)",Inhibition Rate [1],GSH level in small intestine tissue [2],apparent pathological damage score (intestine apparent pathology scoring) [5],number of intracellular tachyzoites [7],MDA level in small intestine tissue ([2]; 100 mg/kg),NO level in small intestine tissue ([2]; 100 mg/kg),food utilization efficiency of mice with T. gondii infection [8],weight increment of mice with T. gondii infection [8]
"N#CCc1cn(C=O)c2ccccc12 [A1, 1-Formyl-1H-indole-3-acetonitrile]",8.17 ± 0.84 ×10^6,mitigate the elevated levels,"surpassed that of the positive control drug, Spy",mitigate the elevated levels,1.2,342 µM,significantly decreased the release of intracellular nitric oxide,demonstrate potential in ameliorating intestinal barrier damage,417 µM,26.0%,–,–,–,–,–,–,–,–,–,–
"NCCc1cn(C=O)c2ccccc12 [A2, 1-Formyl-1H-indole-3-ethanamine]",–,–,–,–,–,–,–,–,–,–,> 1000 µM,> 1000 µM,–,–,–,–,–,–,–,–
"O=Cc1c[nH]c2ccccc12 [A3, Indole-3-carboxaldehyde]",8.22 ± 1.49 ×10^6,more significant,effective inhibition of the MDA increase,less pronounced compared to the other derivatives,1.3,675 ± 8.3 µM,lowest NO release levels; also recorded: significantly decreased the release of intracellular nitric oxide,"most effective, surpassing the control drug Spy in efficacy",869.2 ± 4 µM,15.0%,–,–,33.3%,"significantly higher than that observed with the positive control drug, Spy",significantly lower apparent pathological damage score compared to Spy,more effective than Spy,–,–,–,–
"O=Cc1c[nH]c2ncc(Br)cc12 [A4, 5-bromo-1H-pyrrolo[2,3-b] pyridine-3-carbaldehyde]",–,–,–,–,1.0,995.7 ± 4.9 µM,–,–,960.3 ± 2.5 µM,–,–,–,–,–,–,–,–,–,–,–
"O=Cc1c(Cl)[nH]c2ccccc12 [A5, 2-Chloro-1H-indole-3-carbaldehyde]",9.56 ± 0.92 ×10^6,mitigate the elevated levels,effective inhibition of the MDA increase,mitigate the elevated levels,1.1,564 ± 6.9 µM,significantly decreased the release of intracellular nitric oxide,demonstrate potential in ameliorating intestinal barrier damage,602 ± 9.9 µM,20.3%,–,–,22.2%,–,–,more effective than Spy,–,–,–,–
"COC(=O)c1cn(C=O)c2ccccc12 [A6, 1-formyl-1H-indole-3-carboxylic acid methyl ester]",–,–,–,–,0.9,–,–,–,–,–,742 ± 10.5 µM,633 ± 9.8 µM,–,–,–,–,–,–,–,–
"Clc1cc2ccccc2[nH]1 [A7, 2-Chloro-1H-indole]",–,–,–,–,1.0,287 ± 6.1 µM,–,–,283.7 ± 2.6 µM,–,–,–,–,–,–,–,–,–,–,–
"Cn1cc(C=O)c2ccccc21 [A8, 1-Methyl-indole-3-carbaldehyde]",8.92 ± 0.51 ×10^6,mitigate the elevated levels,–,–,1.1,571 ± 7.4 µM,significantly decreased the release of intracellular nitric oxide,demonstrate potential in ameliorating intestinal barrier damage,650 ± 7.9 µM,20.5%,–,–,–,–,–,more effective than Spy,effective inhibition of the MDA increase; also recorded: slightly outperformed A9,mitigate the elevated levels; also recorded: slightly outperformed A9,–,–
"Cn1c(-c2ccccc2)c(C=O)c2ccccc21 [A9, 1-Methyl-2-phenylindole-3-carbaldehyde]",8.83 ± 0.39 ×10^6,–,effective inhibition of the MDA increase,mitigate the elevated levels,1.1,366 ± 8.8 µM,lowest NO release levels; also recorded: significantly decreased the release of intracellular nitric oxide,demonstrate potential in ameliorating intestinal barrier damage,408.4 ± 3.5 µM,18.0%,–,–,28.1%,–,–,more effective than Spy,–,–,enhanced food utilization efficiency,"did not affect this parameter, except for derivative A9"
"c1ccc2[nH]ccc2c1 [Indole, indole]",10.33 ± 2.84 ×10^6,–,–,–,1.0,–,–,–,–,32.2%,921.2 ± 5 µM,939.6 ± 5.4 µM,–,–,–,–,–,–,–,–
